The results in this text go back to patent US20250382303A1, “NOVEL COMPOUND AS NADPH OXIDASE 2 INHIBITOR AND PHARMACEUTICAL COMPOSITION CONTAINING SAME” (DONGGUK UNIVERSITY INDUSTRY-ACADEMIC COOPERATION FOUNDATION, priority 2022, published 2025).

The target in the experiment is T1, NOX2 (Homo sapiens, UniProt P04839).
T1 construct: Used for the NOX2 activity assay was human leukemia 60 cells (HL-60), which are widely, universally used to assess NOX2 activity; endogenous in cells
T1 sequence (P04839 2-570 limits assumed): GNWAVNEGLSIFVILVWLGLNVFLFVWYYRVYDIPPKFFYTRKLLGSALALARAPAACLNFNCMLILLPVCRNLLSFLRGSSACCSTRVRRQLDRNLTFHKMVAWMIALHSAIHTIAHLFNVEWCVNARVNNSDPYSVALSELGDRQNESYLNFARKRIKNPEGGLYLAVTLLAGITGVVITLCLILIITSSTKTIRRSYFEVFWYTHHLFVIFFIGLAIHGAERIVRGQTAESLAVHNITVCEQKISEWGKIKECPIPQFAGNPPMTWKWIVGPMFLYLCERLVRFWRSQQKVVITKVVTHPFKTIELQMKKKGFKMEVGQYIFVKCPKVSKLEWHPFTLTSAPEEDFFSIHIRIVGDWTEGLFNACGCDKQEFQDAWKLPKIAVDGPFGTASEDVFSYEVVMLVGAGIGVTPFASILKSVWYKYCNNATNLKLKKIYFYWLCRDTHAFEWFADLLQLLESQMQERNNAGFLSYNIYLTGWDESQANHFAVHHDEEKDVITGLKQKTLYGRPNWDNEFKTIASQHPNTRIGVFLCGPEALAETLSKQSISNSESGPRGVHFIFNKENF
T1 sequence (P13498 2-195 partner limits assumed): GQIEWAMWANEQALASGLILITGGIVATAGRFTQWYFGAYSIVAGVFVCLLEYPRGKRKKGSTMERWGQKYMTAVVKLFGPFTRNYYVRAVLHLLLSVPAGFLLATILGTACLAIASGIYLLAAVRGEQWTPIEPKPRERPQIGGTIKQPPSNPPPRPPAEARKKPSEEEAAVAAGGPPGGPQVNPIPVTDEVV
Kind of experiment: NOX2 activity assay: PMA-induced ROS in ATRA-differentiated HL-60 cells (WST-1 or Amplex Red/HRP probe). The format is cell-based. The note with it: for NOX2 inhibitory ability, verbal rating: WST-1, comment on Table 1; for IC50: WST-1 probe, differentiated HL-60, 200 ng/mL PMA, read-out: Inhibitory ability (NOX2). The protocol:
NOX activity was evaluated by measuring the reactive oxygen species (ROS) produced by NOX. The probes that were used to measure ROS were water soluble tetrazolium-1 (WST-1, superoxide-specific colorimetric probe) and Amplex Red/horseradish peroxidase (AR/HRP, hydrogen peroxide-specific fluorometric probe), and the concentration of the probes used was […]. For WST-1, the change in the absorbance at 450 nm was measured, and, for AR, the change in fluorescence signals was measured at 560 nm and 585 nm, respectively for excitation wavelength (Ex) and emission wavelength (Em). The optical signal was measured using the SpectraMax M3 microplate reader from Molecular Devices at 37° C. for 60 minutes.
Used for the NOX2 activity assay was human leukemia 60 cells (HL-60), which are widely, universally used to assess NOX2 activity. 1×10^5 cells/mL of HL-60 were treated with […] all-trans-retinoic acid (ATRA) for 4 days to induce differentiation. Differentiated HL-60 (diff. HL-60) was centrifuged at 200 g for 5 minutes and washed twice with HBSS. Differentiation was induced to reach 3×10^4 cells/well on a 96-well plate (diff). HL-60 was seeded. The test material was treated to cells and left in a 37° C. incubator for 60 minutes. As a control group, the same concentration of DMSO, which is the vehicle of the test material, was used. 200 ng/mL phorbol 12-myristate 13-acetate (PMA) was used as the NOX2 activator, and the production amount of ROS induced by PMA was measured for 60 minutes. […] diphenyleneiodonium (DPI), which is well known to inhibit NOX, was used as a positive control group to evaluate whether the NOX2 activity tester properly operates.
(In general: Tetrazolium assays rely on reduction of a dye to a coloured formazan, in cell work by metabolically active cells.)

Consider `CC12CC(NC(=O)N1c1cccc(C(=O)N3CCc4ccccc4C3)c1)c1cc(-c3cccs3)ccc1O2` (stereo not shown) [Compound 26c, 2-Methyl-3-(3-(1,2,3,4-tetrahydroisoquinoline-2-carbonyl)phenyl)-8-(thiophen-2-yl)-5,6-dihydro-2H-2,6-methanobenzo[g][1,3,5]oxadiazocin-4(3H)-one], for which the “NOX2 inhibitory ability, verbal rating” value is recorded as “excellent inhibitory ability” and the IC50 is over 10 µM.

As for `CC12CC(NC(=O)N1c1cccc(C(=O)N3CCc4ccccc4C3)c1)c1cc(-c3ccco3)ccc1O2` (stereo not shown) [Compound 26d, 8-(furan-2-yl)-2-methyl-3-(3-(1,2,3,4-tetrahydroisoquinoline-2-carbonyl)phenyl)-5,6-dihydro-2H-2,6-methanobenzo[g][1,3,5]oxadiazocin-4(3H)-one], the “NOX2 inhibitory ability, verbal rating” value is “excellent inhibitory ability” and the IC50 is over 10 µM.

Regarding `COc1ccc(-c2ccc3c(c2)C2CC(C)(O3)N(c3cccc(C(=O)N4CCc5ccccc5C4)c3)C(=O)N2)cc1` (stereo not shown) [Compound 26e, 8-(4-Methoxyphenyl)-2-methyl-3-(3-(1,2,3,4-tetrahydroisoquinoline-2-carbonyl)phenyl)-5,6-dihydro-2H-2,6-methanobenzo[g][1,3,5]oxadiazocin-4(3H)-one], the “NOX2 inhibitory ability, verbal rating” value is reported as “excellent inhibitory ability” and the IC50 was over 10 µM.

As to `CC12CC(NC(=O)N1c1cccc(C(=O)N3CCc4ccccc4C3)c1)c1cc(N3CCOCC3)ccc1O2` (stereo not shown) [Compound 26f, 2-Methyl-8-morpholino-3-(3-(1,2,3,4-tetrahydroisoquinoline-2-carbonyl)phenyl)-5,6-dihydro-2H-2,6-methanobenzo[g][1,3,5]oxadiazocin-4(3H)-one], the IC50 is 1 to 10 µM.

In the case of `CC12CC(NC(=O)N1c1cccc(C(=O)N3CCc4ccccc4C3)c1)c1cccc(-c3ccsc3)c1O2` (stereo not shown) [Compound 26g, 2-Methyl-3-(3-(1,2,3,4-tetrahydroisoquinoline-2-carbonyl)phenyl)-10-(thiophen-3-yl)-5,6-dihydro-2H-2,6-methanobenzo[g][1,3,5]oxadiazocin-4(3H)-one], the IC50 is 1 to 10 µM.

As to `CC12CC(NC(=O)N1c1cccc(C(=O)N3CCc4ccccc4C3)c1)c1cccc(-c3ccoc3)c1O2` (stereo not shown) [Compound 26h, 10-(Furan-3-yl)-2-methyl-3-(3-(1,2,3,4-tetrahydroisoquinoline-2-carbonyl)phenyl)-5,6-dihydro-2H-2,6-methanobenzo[g][1,3,5]oxadiazocin-4(3H)-one], the IC50 fell in the range of 1 to 10 µM.

For `CC12CC(NC(=O)N1c1cccc(C(=O)N3CCc4ccccc4C3)c1)c1ccc(-c3ccsc3)cc1O2` (stereo not shown) [Compound 26i, 2-Methyl-3-(3-(1,2,3,4-tetrahydroisoquinoline-2-carbonyl)phenyl)-9-(thiophen-3-yl)-5,6-dihydro-2H-2,6-methanobenzo[g][1,3,5]oxadiazocin-4(3H)-one], the IC50 lay in the range of 1 to 10 µM.

As for `CC12CC(NC(=O)N1c1cccc(C(=O)N3CCc4ccccc4C3)c1)c1ccc(-c3ccoc3)cc1O2` (stereo not shown) [Compound 26j, 9-(Furan-3-yl)-2-methyl-3-(3-(1,2,3,4-tetrahydroisoquinoline-2-carbonyl)phenyl)-5,6-dihydro-2H-2,6-methanobenzo[g][1,3,5]oxadiazocin-4(3H)-one], the IC50 lay within 1 to 10 µM.

On to `CC12CC(NC(=O)N1c1cccc(C(=O)N3CCc4ccc(F)cc4C3)c1)c1cc(Br)ccc1O2` (stereo not shown) [Compound 27a, 8-Bromo-3-(3-(7-fluoro-1,2,3,4-tetrahydroisoquinoline-2-carbonyl)phenyl)-2-methyl-5,6-dihydro-2H-2,6-methanobenzo[g][1,3,5]oxadiazocin-4(3H)-one], for which the IC50 was 1 to 10 µM.

Consider `CC12CC(NC(=O)N1c1cccc(C(=O)N3CCc4cc(F)ccc4C3)c1)c1cc(Br)ccc1O2` (stereo not shown) [Compound 27b, 8-Bromo-3-(3-(6-fluoro-1,2,3,4-tetrahydroisoquinoline-2-carbonyl)phenyl)-2-methyl-5,6-dihydro-2H-2,6-methanobenzo[g][1,3,5]oxadiazocin-4(3H)-one], for which the IC50 fell in the range of 1 to 10 µM.

As to `CC12CC(NC(=O)N1c1cccc(C(=O)N3CCc4cccc(F)c4C3)c1)c1cc(Br)ccc1O2` (stereo not shown) [Compound 27c, 8-Bromo-3-(3-(8-fluoro-1,2,3,4-tetrahydroisoquinoline-2-carbonyl)phenyl)-2-methyl-5,6-dihydro-2H-2,6-methanobenzo[g][1,3,5]oxadiazocin-4(3H)-one], the IC50 is over 10 µM.

Regarding `CC12CC(NC(=O)N1c1cccc(C(=O)N3CCc4c(cccc4C(F)(F)F)C3)c1)c1cc(Br)ccc1O2` (stereo not shown) [Compound 27e, 8-Bromo-2-methyl-3-(3-(5-(trifluoromethyl)-1,2,3,4-tetrahydroisoquinoline-2-carbonyl)phenyl)-5,6-dihydro-2H-2,6-methanobenzo[g][1,3,5]oxadiazocin-4(3H)-one], the IC50 was in the range of 1 to 10 µM.

Consider `CC12CC(NC(=O)N1c1cccc(C(=O)N3CCc4cc(C(F)(F)F)ccc4C3)c1)c1cc(Br)ccc1O2` (stereo not shown) [Compound 27h, 8-Bromo-2-methyl-3-(3-(6-(trifluoromethyl)-1,2,3,4-tetrahydroisoquinoline-2-carbonyl)phenyl)-5,6-dihydro-2H-2,6-methanobenzo[g][1,3,5]oxadiazocin-4(3H)-one], for which the IC50 fell in the range of 1 to 10 µM.

As for `CC12CC(NC(=O)N1c1cccc(C(=O)N3CCc4ccc(F)cc4C3)c1)c1cc(-c3ccoc3)ccc1O2` (stereo not shown) [Compound 28a, 3-(3-(7-Fluoro-1,2,3,4-tetrahydroisoquinoline-2-carbonyl)phenyl)-8-(furan-3-yl)-2-methyl-5,6-dihydro-2H-2,6-methanobenzo[g][1,3,5]oxadiazocin-4(3H)-one], the IC50 fell in the range of 1 to 10 µM.

`CC12CC(NC(=O)N1c1cccc(C(=O)N3CCc4cc(F)ccc4C3)c1)c1cc(-c3ccoc3)ccc1O2` (stereo not shown) [Compound 28b, 3-(3-(6-Fluoro-1,2,3,4-tetrahydroisoquinoline-2-carbonyl)phenyl)-8-(furan-3-yl)-2-methyl-5,6-dihydro-2H-2,6-methanobenzo[g][1,3,5]oxadiazocin-4(3H)-one]: the “NOX2 inhibitory ability, verbal rating” value is given as “excellent inhibitory ability” and the IC50 was in the range of 1 to 10 µM.

As to `CC12CC(NC(=O)N1c1cccc(C(=O)N3CCc4cccc(F)c4C3)c1)c1cc(-c3ccoc3)ccc1O2` (stereo not shown) [Compound 28c, 3-(3-(8-Fluoro-1,2,3,4-tetrahydroisoquinoline-2-carbonyl)phenyl)-8-(furan-3-yl)-2-methyl-5,6-dihydro-2H-2,6-methanobenzo[g][1,3,5]oxadiazocin-4(3H)-one], the “NOX2 inhibitory ability, verbal rating” value is “excellent inhibitory ability” and the IC50 is over 10 µM.

As to `CC12CC(NC(=O)N1c1cccc(C(=O)N3CCc4c(F)cccc4C3)c1)c1cc(-c3ccoc3)ccc1O2` (stereo not shown) [Compound 28d, 3-(3-(5-Fluoro-1,2,3,4-tetrahydroisoquinoline-2-carbonyl)phenyl)-8-(furan-3-yl)-2-methyl-5,6-dihydro-2H-2,6-methanobenzo[g][1,3,5]oxadiazocin-4(3H)-one], the “NOX2 inhibitory ability, verbal rating” value is “excellent inhibitory ability” and the IC50 was over 10 µM.

`CC12CC(NC(=O)N1c1cccc(C(=O)N3CCc4c(cccc4C(F)(F)F)C3)c1)c1cc(-c3ccoc3)ccc1O2` (stereo not shown) [Compound 28e, 8-(Furan-3-yl)-2-methyl-3-(3-(5-(trifluoromethyl)-1,2,3,4-tetrahydroisoquinoline-2-carbonyl)phenyl)-5,6-dihydro-2H-2,6-methanobenzo[g][1,3,5]oxadiazocin-4(3H)-one]: the IC50 was 1 to 10 µM.

On to `CC12CC(NC(=O)N1c1cccc(C(=O)N3CCc4ccc(C(F)(F)F)cc4C3)c1)c1cc(-c3ccoc3)ccc1O2` (stereo not shown) [Compound 28f, 8-(Furan-3-yl)-2-methyl-3-(3-(7-(trifluoromethyl)-1,2,3,4-tetrahydroisoquinoline-2-carbonyl)phenyl)-5,6-dihydro-2H-2,6-methanobenzo[g][1,3,5]oxadiazocin-4(3H)-one], for which the IC50 is over 10 µM.
